Consider four compounds from patent publication US6921539B2, “Antimicrobial therapeutic compositions and method of use” (priority 2002, dated 2005).

The test system of data set [1] is acute bronchio pneumonia. Kind of data set: In Vivo Treatment of Pneumonia in Sheep, control group (Example 9). Particulars: 15 i.m. injections of 2 ml every 8 hours. An excerpt: (§1) For example, a normalization of body temperature, the animal has begun to eat if not eating before treatment, the specific symptoms (e.g., diarrhea, coughing, etc.) have ceased.
(§2) Treatments of procarvol by injection were through methods and techniques normally used by those in the agricultural field.
(§3) The following examples are from a control group. These were similar animals and received standard conventional antibiotic treatment with accepted veterinary treatment protocols.
A 60 day old male sheep with an initial weight of 40 lbs (18 kg) was afflicted with acute bronchio pneumonia. Symptoms included fever and difficult breathing. The sheep had been positively diagnosed for […]. The sheep had been treated previously with penicillin. The therapy included 15 intramuscular injections of 2 ml Procaine penicillin G every 8 hours. The temperature of the sheep over the course of treatment is shown below.

Data set [2] relates to Escherichia Coli. As to the kind of experiment: In Vivo Treatment of Colibacilosis in Calf, control group (Example 12). The note with it: 5 i.m. injections of 5 ml and infusion of electrolytes every 12 hours.
From the text: as §1, §2, §3
A 15 day old male Holstein calf with an initial weight of 90 lbs (41 kg) was afflicted with Escerichia coli colibacilosis. Symptoms fever, diarrhea, dehydration, and loss of appetite. The calf had been positively diagnosed for Escherichia Coli. The calf had not been treated previously. The therapy included five (5) intramuscular injections of 5 ml ampicillin and also the infusion of electrolytes every 12 hours. The temperature of the calf over the course of treatment is shown below.

The test system of data set [3] is Escherichia coli. Kind of data set: In Vivo Treatment of Colibacilosis in Pig, control group (Example 8). The note with it: 2 i.m. injections of 2 ml every 12 hours.
From the text: as §1, §2, §3
A three (3) week old female Landras pig with an initial weight of 19 lbs (9 kg) was afflicted with Escherichia coli colibacilosis. Symptoms included diarrhea. The pig had been positively diagnosed for the bacterium Escherichia coli. The pig had been treated previously with ampicillin and colicisit. The therapy included two (2) intramuscular injections of 2 ml of ampicillin every 12 hours. The temperature of the pig over the course of treatment is shown below.

The test system of data set [4] is acute bronchio pneumonia. Kind of data set: In Vivo Treatment of Pneumonia in Pig, control group (Example 13). The note with it: 8 i.m. injections of 8 ml every 12 hours.
From the text: as §1, §2, §3
A three and one half (3½) month old male Landras pig with an initial weight of 80 lbs (36 kg) was afflicted with acute bronchio pneumonia. Symptoms included coughing, fever, and loss of appetite. The pig had been positively diagnosed for pneumonia. The pig had not been treated previously. The therapy included eight (8) intramuscular injections of 8 ml of ampicillin every 12 hours. The temperature of the pig over the course of treatment is shown below.

Data set [5] has as its system Steptococcus uberis. Kind of data set: In Vivo Treatment of Mastitis in Cow, control group (Example 14). Particulars: 8 i.m. injections of 8 ml every 12 hours.
From the text: as §1, §2, §3
A four (4) year old […] Holstein cow with an initial weight of 1000 lbs (454 kg) was afflicted with mastitis. Symptoms included edema on the udder, and poor quality milk. The cow had been positively diagnosed for Steptococcus uberis. The cow had been previously treated with penicillin and streptomycin. The therapy included eight (8) intramuscular injections of 8 ml of ampicillin every 12 hours. The temperature of the cow over the course of treatment is shown below.

The conditions of data set [6]: inactive metabolites after degradation by enzymes; cited from earlier work.
The conditions of data set [7]: cited from earlier work.

Consider `CC1(C)S[C@@H]2[C@H](NC(=O)Cc3ccccc3)C(=O)N2[C@H]1C(=O)O.CCN(CC)CCOC(=O)c1ccc(N)cc1` [Procaine penicillin G], for which the outcome of treatment in data set [1] is “successful recovery”.

`CC1(C)S[C@@H]2[C@H](NC(=O)[C@H](N)c3ccccc3)C(=O)N2[C@H]1C(=O)O` [ampicillin]: the outcome of treatment in data set [2] is given as “died as a result of the infection”; in data set [3], “died as a result of the infection”; in data set [4], “successful recovery”; in data set [5], “successful recovery”.

In the case of `Cc1ccc(C(C)C)cc1O` [carvacrol, 5-isopropyl-2-methylphenol], in data set [6], the “metabolites excreted in the urine” value is on record as “approx. 90%” and the “metabolites expired from the lungs in the form of carbon dioxide (CO2)” value is on record as 10%. In addition, the solubility in lipids entry in data set [7] is listed as “soluble in lipids”.

Take `Cc1ccc(C(C)C)c(O)c1` [thymol, 5-methyl-2[1-methylethyl]phenol]: in data set [6], the “metabolites excreted in the urine” value is listed as “approx. 90%” and the “metabolites expired from the lungs in the form of carbon dioxide (CO2)” value is 10%.
